Measured values: patent publication US20130210852A1, “METHODS FOR TREATING INFECTION” (priority 2010, published 2013)
In brackets after ≈: the same amount, converted by molar mass. Read-outs that look alike come from different tables or passages of the source.

Columns and labels:
EAEC = conditions: previously established in the applicant's laboratory; cited from earlier work
[1] = test system: EAEC strain O42 adherence to HEp-2 cells; experiment: HEp-2 cell attachment assay (microscopy after Wright-Giemsa staining); assay type: cell-based, human; conditions: HEp-2 cells incubated 24 h with antibiotic, washed, then EAEC 3 h
[2] = test system: EAEC strain O42 adherence to HeLa cells; assay type: cell-based, human; conditions: 24 h pretreatment with 64 mg (FIG. 2: 64 μg/ml), EAEC 3 h
C difficile [3] = conditions: cited from earlier work
[4] = test system: EAEC strain O42 adherence to HCT-8 cells; assay type: cell-based, human; conditions: 24 h pretreatment with 64 mg (FIG. 2: 64 μg/ml), EAEC 3 h
[5] = test system: ETEC isolates (ST, LT, CS2/CS3, CS6); assay type: cell-based, Escherichia coli; as to Expression of virulence factor CS2/CS3 in ETEC isolates: key: + = present; − = not present; NV, not viable; as to Expression of virulence factor CS6 in ETEC isolates: key: + = present; − = not present; NV, not viable; as to Expression of virulence factor LT in ETEC isolates: key: + = present; − = not present; NV, not viable; as to Expression of virulence factor ST in ETEC isolates: key: + = present; − = not present; NV, not viable
C difficile [6] = conditions: cited from earlier work; remark: listed apart in the source
[7] = test system: HCT-8 cells infected with rifaximin-exposed EAEC strains; experiment: HCT-8 cell culture assay for interleukin-8 (IL-8) release; assay type: cell-based, human
Experimental: The human intestinal adenocarcinoma cell line, HCT-8, was used to study inflammatory modulators as previously published (Huang, 2004 #15). Monolayers of HCT-8 cells (ATCC CCL-244; American Type Culture Collection, Rockville, Md.) were grown in 24-well culture plates (Corning Costar, Corning, N.Y.) in an RPMI 1640 medium (Sigma-Aldrich Co, St Louis, Mo.) supplemented with 100 U/mL of penicillin, 100 μg/mL of streptomycin, and 0.25 μg/mL of amphotericin B. They were maintained in a medium supplemented with 10% fetal bovine serum (HyClone, Logan, Utah) and grown until approximately 4×10^5 cells/well confluence.
HCT-8 cells were infected with EAEC strains recovered from MacConkey agar in triplicate at a 100:1 ratio in an antibiotic- and serum-free RPMI 1640 medium. Cells were incubated for 3 hours in a humidified chamber at 37° C. in an atmosphere containing 5% CO2, after which supernatants were collected. The supernatant concentration of IL-8 in each well was determined by using a commercially available enzyme-linked immunosorbent assay kit for human IL-8 (R&D Systems, Minneapolis, Minn.). All samples were tested twice, and the average value was reported.

C difficile [8] = experiment: Susceptibility testing of C difficile isolates (rifaximin agar dilution, rifampin E strips)
S. sonnei on HeLa cells = experiment: S. sonnei adherence and internalization in HeLa cells; assay type: cell-based, human; conditions: HeLa cells pretreated 24 h
[9] = test system: enterotoxigenic E coli strains; experiment: MIC against rifaximin by agar dilution, ETEC isolates; assay type: cell-based; conditions: Escherichia coli
Experimental: Five enterotoxigenic E coli strains, 2 enteroaggregative E coli strains, and 1 S sonnei isolate were included in the study. The isolates had been identified previously from patients with TD acquired in Guadalajara, Mexico, during the summer of 2004 (5). […] The susceptibility of all isolates to rifaximin was determined by agar dilution methodology following the recommendations of the Clinical and Laboratory Standards Institute.

[10] = test system: EAEC adherence with dialyzed conditioned medium of HEp-2 cells; experiment: Effect of dialyzed HEp-2 supernatants on EAEC adherence; assay type: cell-based, human; parameters: dose or concentration left out as unconfirmed; conditions: HEp-2 treated 24 h, supernatant dialyzed; chambers with or without HEp-2 cells, 3 h
Experimental: HEp-2 cells were cultured in T-175 flasks as described above. […] After 24 h, the medium was collected, loaded into regenerated cellulose dialysis tubing (cutoff, 6 to 8 kDa; Spectra/Por, Rancho Domiguez, Calif.), and dialyzed against 4 liters of PBS changed four times. Each dialysis step lasted at least 6 h and was carried out at 4° C. Dialyzed supernatants were either used immediately in adherence assays or stored at −20° C. until use.
The effect of supernatants on EAEC adherence was determined by mixing EAEC with the dialyzed media from the different antibiotic (or control) treatment groups and adding the bacteria to HEp-2 cells cultured in chambered slides or to chambered slides with no HEp-2 cells. Adherence was visualized microscopically as described above.

[11] = rifaximin 8 mg/L, exposure 4 hrs
[12] = rifaximin 8 mg/L, exposure 8 hrs
[13] = rifaximin 8 mg/L, exposure 18 hrs
[14] = rifaximin 8 mg/L, exposure 24 hrs
[15] = rifaximin 32 mg/L, exposure 4 hrs
[16] = rifaximin 32 mg/L, exposure 8 hrs
[17] = rifaximin 32 mg/L, exposure 18 hrs
[18] = rifaximin 64 mg/L, exposure 4 hrs
[19] = rifaximin 64 mg/L, exposure 8 hrs
[20] = 201 isolates, Canada, 1992 to 2007

CO[C@H]1/C=C/O[C@@]2(C)Oc3c(C)c(O)c4c(O)c(c5c(nc6cc(C)ccn65)c4c3C2=O)NC(=O)/C(C)=C\C=C\[C@H](C)[C@H](O)[C@@H](C)[C@@H](O)[C@@H](C)[C@H](OC(C)=O)[C@@H]1C [Rifaximin, (2S,16Z,18E,20S,21S,22R,23R,24R,25S,26S,27S,28E)-5,6,21,23,25 Pentahydroxy-27-methoxy-2,4,11,16,20,22,24,26-octamethyl-2,7-(epoxypentadeca-(1,11,13)trienimino)benzofuro (4,5-e) pyrido(1,2,-a) benzimidazole-1,15(2H)-dione,25-acetate]
MIC50 for EAEC (EAEC): 64 µg/mL
EAEC O42 adherence to HEp-2 cells (microscopy) [1]: greatly reduced
EAEC adherence to HeLa cells [2]: significantly reduced
isolates resistant to rifaximin, based on MIC values (C difficile [3]; 110 C difficile isolates): 2.7%
MIC50 against C difficile (C difficile [3]; 110 isolates, 1983 to 2004): 0.0075 µg/mL (≈ 0.00954 µM)
MIC90 against C difficile (C difficile [3]; 110 isolates, 1983 to 2004): 0.015 µg/mL (≈ 0.0191 µM)
EAEC adherence to HCT-8 cells [4]: Slightly fewer bacteria adhered to rifaximin-pretreated HCT-8 cells, but this difference was not significant
Expression of all examined virulence factors (ST, LT, CS2/CS3, CS6) by viable ETEC isolates ([5]; 4- and 8-hour exposure to rifaximin 8, 32, and 64 mg/L): expressed all examined virulence factors
Expression of all examined virulence factors (ST, LT, CS2/CS3, CS6) by viable ETEC isolates ([5]; 18-hour time point, rifaximin 8 mg/L): all virulence factors were expressed
Expression of all examined virulence factors (ST, LT, CS2/CS3, CS6) by viable ETEC isolates ([5]; 18-hour time point, rifaximin 32 mg/L): no factors were seen
Expression of all examined virulence factors (ST, LT, CS2/CS3, CS6) by viable ETEC isolates ([5]; 24-hour exposure to rifaximin 8 mg/L): did not express any virulence factors
Expression of virulence factor CS2/CS3 in ETEC isolates [5, 11]: +
Expression of virulence factor CS6 in ETEC isolates [5, 11]: +
Expression of virulence factor LT in ETEC isolates [5, 11]: +
Expression of virulence factor ST in ETEC isolates [5, 11]: +
Expression of virulence factor ST/LT in ETEC isolates [5, 11]: +
Expression of virulence factor CS2/CS3 in ETEC isolates [5, 12]: +
Expression of virulence factor CS6 in ETEC isolates [5, 12]: +
Expression of virulence factor LT in ETEC isolates [5, 12]: +
Expression of virulence factor ST in ETEC isolates [5, 12]: +
Expression of virulence factor ST/LT in ETEC isolates [5, 12]: +
Expression of virulence factor CS2/CS3 in ETEC isolates [5, 13]: +
Expression of virulence factor CS6 in ETEC isolates [5, 13]: +
Expression of virulence factor LT in ETEC isolates [5, 13]: +
Expression of virulence factor ST in ETEC isolates [5, 13]: +
Expression of virulence factor ST/LT in ETEC isolates [5, 13]: +
Expression of virulence factor CS2/CS3 in ETEC isolates [5, 14]: −
Expression of virulence factor CS6 in ETEC isolates [5, 14]: −
Expression of virulence factor LT in ETEC isolates [5, 14]: −
Expression of virulence factor ST in ETEC isolates [5, 14]: −
Expression of virulence factor ST/LT in ETEC isolates [5, 14]: −
Expression of virulence factor CS2/CS3 in ETEC isolates [5, 15]: +
Expression of virulence factor CS6 in ETEC isolates [5, 15]: +
Expression of virulence factor LT in ETEC isolates [5, 15]: +
Expression of virulence factor ST in ETEC isolates [5, 15]: +
Expression of virulence factor ST/LT in ETEC isolates [5, 15]: +
Expression of virulence factor CS2/CS3 in ETEC isolates [5, 16]: +
Expression of virulence factor CS6 in ETEC isolates [5, 16]: +
Expression of virulence factor LT in ETEC isolates [5, 16]: +
Expression of virulence factor ST in ETEC isolates [5, 16]: +
Expression of virulence factor ST/LT in ETEC isolates [5, 16]: +
Expression of virulence factor CS2/CS3 in ETEC isolates [5, 17]: −
Expression of virulence factor CS6 in ETEC isolates [5, 17]: −
Expression of virulence factor LT in ETEC isolates [5, 17]: −
Expression of virulence factor ST in ETEC isolates [5, 17]: −
Expression of virulence factor ST/LT in ETEC isolates [5, 17]: −
Expression of virulence factor CS2/CS3 in ETEC isolates [5, 18]: +
Expression of virulence factor CS6 in ETEC isolates [5, 18]: +
Expression of virulence factor LT in ETEC isolates [5, 18]: +
Expression of virulence factor ST in ETEC isolates [5, 18]: +
Expression of virulence factor ST/LT in ETEC isolates [5, 18]: +
Expression of virulence factor CS2/CS3 in ETEC isolates [5, 19]: +
Expression of virulence factor CS6 in ETEC isolates [5, 19]: +
Expression of virulence factor LT in ETEC isolates [5, 19]: +
Expression of virulence factor ST in ETEC isolates [5, 19]: +
Expression of virulence factor ST/LT in ETEC isolates [5, 19]: +
isolates with MIC values >2 μg/mL (C difficile [6]; 201 C difficile isolates): 4%
MIC50 against C difficile (C difficile [6]; [20]): 0.008 µg/mL (≈ 0.0102 µM)
MIC90 against C difficile (C difficile [6]; [20]): 0.015 µg/mL (≈ 0.0191 µM)
IL-8 production from HCT-8 cells infected with rifaximin-exposed EAEC ([7]; EAEC exposed to rifaximin 64 mg/L for 4 hours): caused IL-8 production
IL-8 production from HCT-8 cells infected with rifaximin-exposed EAEC ([7]; EAEC exposed to rifaximin 8 or 32 mg/L for 4 or 8 hours): elicited production of IL-8
IL-8 production from HCT-8 cells infected with rifaximin-exposed EAEC ([7]; all other time points and rifaximin concentrations): Interleukin-8 was either undetected following HCT-8 infection with EAEC strains, or EAEC strains were not viable
IL-8 production from HCT-8 cells infected with rifaximin-exposed EAEC ([7]; viable EAEC exposed to rifaximin 8, 32, or 64 mg/L for 18 hours or 8 mg/L for 24 hours): did not elicit IL-8 production
MIC50 against C difficile (C difficile [8]; 359 isolates): <0.01 µg/mL
MIC90 against C difficile (C difficile [8]; 359 isolates): 0.25 µg/mL (≈ 0.318 µM)
MIC50 against C difficile (C difficile [8]; 359 isolates, listed as rifaximin): < 0.01 µg/mL
Isolates resistant to rifaximin alone (n = 11), (%) (C difficile [8]; genotype A +, B +, BT +, tcdC-del +): (0) %
Isolates resistant to rifaximin alone (n = 11), (%) (C difficile [8]; genotype A +, B +, BT +, tcdC-del −): (18) %
Isolates resistant to rifaximin alone (n = 11), (%) (C difficile [8]; genotype A +, B +, BT −, tcdC-del +): (9) %
Isolates resistant to rifaximin alone (n = 11), (%) (C difficile [8]; genotype A +, B +, BT −, tcdC-del −): (55) %
Isolates resistant to rifaximin alone (n = 11), (%) (C difficile [8]; genotype A −, B −, BT −, tcdC-del −): (18) %
S. sonnei attachment (S. sonnei on HeLa cells): no effect
S. sonnei internalization (S. sonnei on HeLa cells; gentamicin protection): no effect
MIC ([9]; read-out: MIC, ETEC, 2 ETEC isolates): 128 µg/mL (≈ 163 µM)
MIC ([9]; read-out: MIC, all ETEC and EAEC isolates, 5 ETEC and 2 EAEC isolates): 64 to 128 µg/mL (≈ 81.4 to 163 µM)
EAEC adherence after mixing with dialyzed supernatants of antibiotic-treated HEp-2 cells [10]: adhered poorly
